Data taken from patent US20130252930A1 (BIOMARIN PHARMACEUTICAL INC., priority 2010, published 2013).
Read-outs that look alike come from different tables or passages of the source.

Experiments:
[1] = target: T1, CYP17 (human testicular microsome) (Homo sapiens, UniProt P05093); assay: CYP17 enzymatic assay (% inhibition at 10 nM), version 1 (Biological Example 5); type: biochemical
T1 construct: using microsomal fraction from human testis (Celsis Cat #S00110) as the enzyme source; tissue Celsis S00110; host or cells: human testis microsomal fraction
T1 sequence (P05093 1-508): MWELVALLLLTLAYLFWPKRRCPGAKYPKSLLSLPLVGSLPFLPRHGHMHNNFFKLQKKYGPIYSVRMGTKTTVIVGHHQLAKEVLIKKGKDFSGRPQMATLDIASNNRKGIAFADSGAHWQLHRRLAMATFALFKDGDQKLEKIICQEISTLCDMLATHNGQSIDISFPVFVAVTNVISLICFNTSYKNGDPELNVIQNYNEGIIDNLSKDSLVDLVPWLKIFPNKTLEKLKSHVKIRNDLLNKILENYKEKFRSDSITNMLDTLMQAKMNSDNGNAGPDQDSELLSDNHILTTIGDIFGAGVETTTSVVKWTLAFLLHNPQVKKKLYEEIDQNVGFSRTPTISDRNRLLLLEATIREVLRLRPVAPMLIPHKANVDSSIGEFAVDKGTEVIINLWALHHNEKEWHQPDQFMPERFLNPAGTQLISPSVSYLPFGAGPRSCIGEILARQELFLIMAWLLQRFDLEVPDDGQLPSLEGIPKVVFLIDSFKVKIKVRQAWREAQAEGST

[2] = target: T1, CYP17 (human testicular microsome); assay: CYP17 enzymatic assay (IC50) (Biological Example 4); type: biochemical; details: human testicular microsome
[3] = target: T2, Cyp21 enzyme (Human HEK 293-Cyp21 stable transfected cells) (Homo sapiens, UniProt P08686); assay: CYP21-HEK293 enzymatic assay (% inhibition at 100 nM) (Biological Example 10); type: cell-based; details: HEK 293-Cyp21 cells
T2 construct: expressed in transfected cells
T2 sequence (P08686 1-495): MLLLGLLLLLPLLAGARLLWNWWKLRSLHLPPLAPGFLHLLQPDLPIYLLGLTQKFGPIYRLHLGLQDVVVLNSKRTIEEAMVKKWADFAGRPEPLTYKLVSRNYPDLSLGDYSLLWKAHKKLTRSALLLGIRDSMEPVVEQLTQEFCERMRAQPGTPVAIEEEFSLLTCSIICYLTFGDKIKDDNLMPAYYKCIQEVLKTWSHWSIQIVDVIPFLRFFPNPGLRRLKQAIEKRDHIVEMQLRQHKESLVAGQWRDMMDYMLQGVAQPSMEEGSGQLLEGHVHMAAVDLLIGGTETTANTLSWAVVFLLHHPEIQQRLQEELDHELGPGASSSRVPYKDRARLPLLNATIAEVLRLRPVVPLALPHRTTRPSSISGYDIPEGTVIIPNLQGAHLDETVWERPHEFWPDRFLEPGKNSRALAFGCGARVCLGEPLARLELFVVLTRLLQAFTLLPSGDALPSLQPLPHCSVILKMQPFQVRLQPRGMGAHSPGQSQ
Description: Proceeding using methods similar to those described in Biological Example 11, the percent inhibition at 100 nM was measured.
This assay was used to determine compound activity against Cyp21 enzyme. Human HEK 293-Cyp21 stable transfected cells (maintained in complete growth media DMEM+10% FBS, supplemented with 125 ug/mL Hygromycin) were seeded in a 96-well plate at 20,000 cells/well/100 uL in DMEM plus 10% FBS and allowed to attach overnight. The next day, 20 μL medium was carefully removed and 10 μL of 10× pre-made compounds in DMEM+10% FBS+10% methanol was transferred to the wells to final concentrations of 1000, 100, 10, 1, or 0.1 nM. Mock treatment was 1% methanol in growth media and the cells were left at 37° C., 5% CO2 for 5 hr. After the incubation, 10 μL of substrate progesterone (Sigma) was added to the wells to make a final concentration of 10 μM. The cells were incubated the cells at 37° C. for 20 hr. At the end of incubation, 90 μL of conditioned media was removed to measure DOC level by ELISA.
Preparation of the DOC ELISA: 100 μL of coating buffer (0.025M PBS pH 7.4) containing 200 ng/mL DOC-3-carboxymethyloxime-BSA (Steraloids. inc, Cat#3469-000) was added to each well of a 96-well plate and incubated overnight at 4° C. The next day, the plates were washed twice with 250 μl of wash solution (0.015M PBS pH 7.4 containing 0.05% Tween 20). After being washed, the wells were blocked with 250 μL blocking buffer (3% BSA in 0.025M PBS, pH 7.4) at 37° C. for 2 h. The plates were washed again 3 times as before, and then 90 μL of sample /standards (prepared in complete growth media) was added into the appropriate wells followed by 10 μL of antibody solution (1:450 rabbit anti-DOC in 0.6% BSA/PBS). The plates were incubated at room temperature for 2 h on a shaker. The contents of the wells were removed and the plate was washed 4 times. After the final wash, 100 μL of secondary antibody (1:12000 HRP-goat-anti-rabbit IgG conjugate 0.6% BSA/PBS) was added into each well. The plate was incubated at 30° C. for 45 min. The plate was washed again 4 times and 100 μL of TMB substrate solution was added to each well. The plate was incubated at room temperature for 10 min. 100 μL of stop solution was added to each well and the optical density was read at 450 nm.
The mean absorbance value for each sample was used to determine the corresponding concentration from the standard curve. Data was analyzed with “log(antagonist) vs response variable slope” under “non-linear regression analysis” using Prism5 software.

[4] = Human liver microsome stability assay (Biological Example 8b); details: liver microsomes, pH 7.4
Description: The reaction was started with addition of excess NADPH (5 mg/mL, 15 μL in 0.1 M potassium phosphate buffer, 1.0 mM EDTA, pH 7.4), the total volume is 45 μL (compound final concentration was 1 μM). […] 50 μL of the supernatant was transferred from each well into a 96-well sample plate containing 50 μL of ultra-pure water (Millipore) for LC-MS/MS analysis.

[5] = target: T1, CYP17 (human testicular microsome); assay: CYP17 enzymatic assay (% inhibition at 1 nM) (Biological Example 12); type: biochemical
[6] = target: T2, Cyp21 enzyme (Human HEK 293-Cyp21 stable transfected cells); assay: CYP21-HEK293 enzymatic assay (IC50) (Biological Example 11); type: cell-based; details: HEK 293-Cyp21 cells; read-out: CYP21-HEK293 enzymatic assay IC50 (Biological Example No. 11)
Description: This assay was used to determine compound activity against Cyp21 enzyme. […] The next day, 20 μL medium was carefully removed and 10 μL of 10× pre-made compounds in DMEM+10% FBS+10% methanol was transferred to the wells to final concentrations of 1000, 100, 10, 1, or 0.1 nM. Mock treatment was 1% methanol in growth media and the cells were left at 37° C., 5% CO2 for 5 hr. After the incubation, 10 μL of substrate progesterone (Sigma) was added to the wells to make a final concentration of 10 μM. The cells were incubated the cells at 37° C. for 20 hr. At the end of incubation, 90 μL of conditioned media was removed to measure DOC level by ELISA.
The next day, the plates were washed twice with 250 μl of wash solution (0.015M PBS pH 7.4 containing 0.05% Tween 20). After being washed, the wells were blocked with 250 μL blocking buffer (3% BSA in 0.025M PBS, pH 7.4) at 37° C. for 2 h. The plates were washed again 3 times as before, and then 90 μL of sample /standards (prepared in complete growth media) was added into the appropriate wells followed by 10 μL of antibody solution (1:450 rabbit anti-DOC in 0.6% BSA/PBS). The plates were incubated at room temperature for 2 h on a shaker. The contents of the wells were removed and the plate was washed 4 times. After the final wash, 100 μL of secondary antibody (1:12000 HRP-goat-anti-rabbit IgG conjugate 0.6% BSA/PBS) was added into each well. […] The plate was washed again 4 times and 100 μL of TMB substrate solution was added to each well. The plate was incubated at room temperature for 10 min. 100 μL of stop solution was added to each well and the optical density was read at 450 nm.

[7] = 10 nM compound, DHEA by ELISA, read-out: Biological Example No. 5: CYP17 percent inhibition at 10 nM (version 1)
[8] = DHEA by ELISA, read-out: Biological Example No. 4: CYP17 enzymatic assay IC50
[9] = 100 nM compound, read-out: Biological Example No. 10: CYP21-HEK293 percent inhibition at 100 nM
[10] = compound at 1 nM, read-out: CYP17 enzymatic assay % inhibition at 1 nM (Biological Example No. 12)
[11] = read-out: CYP17 enzymatic assay IC50 (Biological Example No. 4)
[12] = compound at 100 nM, read-out: CYP21-HEK293 enzymatic assay % inhibition at 100 nM (Biological Example No. 10)
[13] = read-out: Biological Example No. 4: CYP17 enzymatic assay IC50
[14] = compound at 100 nM, read-out: Biological Example No. 10: CYP21-HEK293 enzymatic assay % inhibition at 100 nM

COc1cncc(C2=CC=C3[C@@H]4CCC5=CC(=O)NCC[C@]5(C)[C@H]4CC[C@]23C)c1 [Compound 86, (5aR,7aS)-8-(5-methoxypyridin-3-yl)-5a,7a-dimethyl-4,5,5a,5b,6,7,7a,10b,11,12-decahydrocyclopenta[5,6]naphtho[2,1-c]azepin-3(2H)-one]
inhibition at 0.01 µM [1, 7]: 50 to 80% | IC50 [2, 8]: < 11 nM | inhibition at 0.1 µM [3, 9]: ≥ 30%

C[C@]12CCCC(=O)CC1=CC[C@@H]1[C@@H]2CC[C@]2(C)C(c3cnccn3)=CC[C@@H]12 [Compound 142, 10a,12a-dimethyl-1-(pyrazin-2-yl)-3,3a,3b,4,8,9,10,10a,10b,11,12,12a-dodecahydrocyclohepta[a]cyclopenta[f]naphthalen-7(6H)-one]
inhibition at 0.01 µM [1, 7]: > 80% | half-life at 1 μM [4]: 1 to 50 min | inhibition at 0.1 µM [3, 9]: ≥ 30%

COc1cncc(C2=CC=C3[C@@H]4CCC5=CC(=O)N(C)CC[C@]5(C)[C@H]4CC[C@]23C)c1 [Compound 159]
inhibition at 0.01 µM [1, 7]: > 80% | IC50 [2, 8]: < 11 nM | half-life at 1 μM [4]: 1 to 50 min | inhibition at 0.1 µM [3, 9]: ≥ 30%

CON=C1C=C2CCC3C4=CC=C(c5cccnc5)[C@@]4(C)CCC3[C@@]2(C)CC1 (stereo partly drawn) [Compound 287, (10R,13S)-10,13-dimethyl-17-(pyridin-3-yl)-6,7,8,9,10,11,12,13-octahydro-1H-cyclopenta[a]phenanthren-3(2H)-one O-methyl oxime]
inhibition at 0.001 µM [5, 10]: 10 to 50% | IC50 [6]: > 100 nM | IC50 [2, 11]: < 11 nM | half-life at 1 μM [4]: > 50 min | inhibition at 0.1 µM [3, 12]: ≥ 30%

Cc1cncc(C2=CC[C@H]3[C@@H]4CCC5=CC(=O)N(C)CC[C@]5(C)[C@H]4CC[C@]23C)c1 [Compound 54]
inhibition at 0.01 µM [1, 7]: 50 to 80% | IC50 [2, 8]: < 11 nM | inhibition at 0.1 µM [3, 9]: < 30%

C[C@]12CCC3C(CCC4=CC(=O)CC[C@@]43C)C1=CC=C2c1cncc(N)c1 (stereo partly drawn) [Compound 360, (10R,13S)-17-(5-aminopyridin-3-yl)-10,13-dimethyl-6,7,8,9,10,11,12,13-octahydro-1H-cyclopenta[a]phenanthren-3(2H)-one]
IC50 [2, 13]: < 11 nM | inhibition at 0.1 µM [3, 14]: < 30%

C[C@]12CCC(=O)C=C1CCC1C2CC[C@]2(C)C(c3cccnc3)=CCC12 (stereo partly drawn) [B, (10R,13S)-10,13-dimethyl-17-(pyridin-3-yl)-6,7,8,9,10,11,12,13,14,15-decahydro-1H-cyclopenta[a]phenanthren-3(2H)-one, reference compound]
inhibition at 0.001 µM ([5]; 1 nM compound, DHEA by ELISA, read-out: Biological Example No. 12: CYP17 percent inhibition at 1 nM): > 50% | inhibition at 0.1 µM [3, 9]: ≥ 30%

Cc1cncc(C2=CC=C3[C@@H]4CCC5=CC(=O)N(C)CC[C@]5(C)[C@H]4CC[C@]23C)c1 [Compound 160]
inhibition at 0.01 µM [1, 7]: 50 to 80% | inhibition at 0.1 µM [3, 9]: < 30%

C[C@]12CCC3C(CCC4=CC(=NO)CC[C@@]43C)C1=CC=C2c1cccnc1 (stereo partly drawn) [Compound 288, (10R,13S)-10,13-dimethyl-17-(pyridin-3-yl)-6,7,8,9,10,11,12,13-octahydro-1H-cyclopenta[a]phenanthren-3(2H)-one oxime]
inhibition at 0.001 µM [5, 10]: > 50% | IC50 [2, 11]: < 11 nM | half-life at 1 μM [4]: 1 to 50 min | inhibition at 0.1 µM [3, 12]: < 30%

C[C@]12CCC(=O)C=C1CC[C@@H]1[C@@H]2CC[C@]2(C)C(c3cccnc3)CC[C@@H]12 (stereo partly drawn) [Compound 419, (10R,13S)-10,13-dimethyl-17-(pyridin-3-yl)-6,7,8,9,10,11,12,13,14,15,16,17-dodecahydro-1H-cyclopenta[a]phenanthren-3(2H)-one]
inhibition at 0.001 µM [5, 10]: 10 to 50% | inhibition at 0.1 µM [3, 12]: ≥ 30%

CN1CC[C@@]2(C)C(=CC1=O)CC[C@H]1C3=CC=C(c4cnccn4)[C@@]3(C)CC[C@@H]12 [Compound 184, (5aR,7aS)-3,5a,7a-trimethyl-8-(pyrazin-2-yl)-3,4,5,5a,5b,6,7,7a,11,12-decahydrocyclopenta[5,6]naphtho[1,2-d]azepin-2(10bH)-one]
inhibition at 0.001 µM [5, 10]: 10 to 50% | inhibition at 0.01 µM ([1]; compound at 10 nM, read-out: CYP17 enzymatic assay % inhibition at 10 nM (Biological Example No. 5)): > 80% | IC50 [2, 11]: < 11 nM | inhibition at 0.1 µM [3, 12]: ≥ 30%

CC1CC2C3=CC=C(c4cncc(N)c4)[C@@]3(C)CCC2[C@@]2(C)CCC(=O)C=C12 (stereo partly drawn) [Compound 329, (10R,13S)-17-(5-aminopyridin-3-yl)-6,10,13-trimethyl-6,7,8,9,10,11,12,13-octahydro-1H-cyclopenta[a]phenanthren-3(2H)-one]
IC50 [2, 13]: < 11 nM | inhibition at 0.1 µM [3, 14]: < 30%

CCc1cncc(C2=CC[C@H]3[C@@H]4CCC5=CC(=O)N(C)CC[C@]5(C)[C@H]4CC[C@]23C)c1 [Compound 145]
inhibition at 0.01 µM [1, 7]: 50 to 80% | inhibition at 0.1 µM [3, 9]: ≥ 30%

C[C@]12CCCC(=O)CC1=CCC1[C@@H]2CC[C@]2(C)C(n3ccnc3)=CC[C@@H]12 (stereo partly drawn) [Compound 107, (3aS,10aR,10bS,12aS)-1-(1H-imidazol-1-yl)-10a,12a-dimethyl-3,3a,3b,4,8,9,10,10a,10b,11,12,12a-dodecahydrocyclohepta[a]cyclopenta[f]naphthalen-7(6H)-one]
inhibition at 0.01 µM [1, 7]: > 80% | IC50 [2, 8]: < 11 nM | half-life at 1 μM [4]: 1 to 50 min | inhibition at 0.1 µM [3, 9]: ≥ 30%
